Results reported in patent US4730054A, “Imidazole thieno-benzothiepins” (SPOFA, Spojene Podinky Pro Zdravotnickou Vyrobu, priority 1985, dated 1988).
In brackets after ≈: the same amount, converted by molar mass.

Tests used:
S pastorianus = experiment: MIC by standard dilution method in a liquid nutrient medium; assay type: cell-based, Saccharomuces pastorianus; conditions: inoculum 10^4 CFU/ml, read-out: Antimycotic Activity (MIC)
Excerpt: (§1) For example, the new compounds were compared in vitro with the known antimycotic agents clotrimazole, miconazole and ketoconazole, in order to determine their minimum inhibitive concentrations (MICs). See, Fromtling, R. A., "Imidazoles as medically important antifungal agents: an overview," 20 Drugs of Today No. 7, 328-331 (1984); Burgess & Bodey, "Clotrimazole," 2 Antimicrobial Agents and Chemotherapy No. 6, 423-6 (1972). […] The test innoculum size was 10^6 CFU/ml for Aspergillus niger and Trichophyton mentagrophytes and 10^4 CFU/ml for Saccharomuces pastorianus and Candida albicans, where CFU is the standard abbreviation for microbial cell counts.

C albicans = experiment: as above; assay type: cell-based; conditions: Candida albicans, inoculum 10^4 CFU/ml, read-out: Antimycotic Activity (MIC)
Excerpt: as §1

A niger = experiment: as above; assay type: cell-based; conditions: Aspergillus niger, inoculum 10^6 CFU/ml, read-out: Antimycotic Activity (MIC)
Excerpt: as §1

T mentagrophytes = experiment: as above; assay type: cell-based; conditions: Trichophyton mentagrophytes, inoculum 10^6 CFU/ml, read-out: Antimycotic Activity (MIC)
Excerpt: as §1

[1] = system: pathogenic molds as well as yeasts and related microorganisms; experiment: Effect of addition of serum or blood to the agar test plate on antimycotic effect, Sabouraud agar; assay type: cell-based; conditions: for effect of addition of serum or blood to the agar test plate: in comparison to the protein-free agar culture values; for potency in the presence of biological protein substances: such as blood constituents
Protocol: (§2) The sensitivity of a larger number of clinical strain isolates of pathogenic molds (a total of 16) as well as yeasts and related microorganisms (a total of 21) when exposed to the inventive compounds was determined using the dilution method on Sabouraud agar. Thus, the experimental MIC values for mold strains exposed to Compound Ia were from 0.7 to 100 mg/l.

Candida albicans = experiment: Vaginal candidosis induced experimentally in mice, intravaginal administration; assay type: in vivo, Candida albicans (in mice); conditions: for inhibition of the test culture: ten days
Protocol: The in vivo evaluation of antimycotic activity was performed using a model of vaginal candidosis induced experimentally in mice by Candida albicans. The test substances were administered intravaginally over a period of ten days in the form of homogenized suspensions of appropriately chosen concentrations in a 0.5% aqueous hydroxyethylcellulose solution. The results were evaluated both immediately upon administration and after one and two weeks.

[2] = system: clinical strain isolates of pathogenic molds (a total of 16); experiment: Sensitivity of clinical mold strain isolates, dilution method on Sabouraud agar; assay type: cell-based; conditions: 16 clinical mold strains
Protocol: as §2

[3] = Chronic (one month) toxicity on intravaginal administration, dog; assay type: in vivo
[4] = Standard test for foetal damage; conditions: standard tests
[5] = Standard test for cancerogenity; conditions: standard tests
[6] = Standard test for dermal irritation; assay type: in vivo; conditions: standard tests
[7] = Standard test for teratogenity; conditions: standard tests
[8] = Acute toxicity LD50 in rats p.o.; conditions: for LD50: rat, in vivo, po
[9] = system: typical inducers of dermal mycoses; experiment: Antimycotic activity against typical inducers of dermal mycoses compared with clotrimazole and miconazole; assay type: cell-based
Protocol: (§3) For example, the new compounds were compared in vitro with the known antimycotic agents clotrimazole, miconazole and ketoconazole, in order to determine their minimum inhibitive concentrations (MICs). See, Fromtling, R. A., "Imidazoles as medically important antifungal agents: an overview," 20 Drugs of Today No. 7, 328-331 (1984); Burgess & Bodey, "Clotrimazole," 2 Antimicrobial Agents and Chemotherapy No. 6, 423-6 (1972). MIC values were determined by the standard dilution method in a liquid nutrient medium, primarily with the following yeast and mold species typically used in preliminary antimycotic screening: Saccharomuces pastorianus, Candida albicans, Trichophyton mentagrophytes, and Aspergillus niger. The test innoculum size was 10^6 CFU/ml for Aspergillus niger and Trichophyton mentagrophytes and 10^4 CFU/ml for Saccharomuces pastorianus and Candida albicans, where CFU is the standard abbreviation for microbial cell counts.

[10] = Standard test for vaginal irritation; assay type: in vivo; conditions: standard tests
[11] = Chronic (one month) toxicity on intravaginal administration, rat; assay type: in vivo
[12] = Standard test for mutagenity; conditions: standard tests
[13] = system: about forty pathogenic yeast and mold strains; experiment: MIC in dilution tests on Sabouraud agar, about forty pathogenic yeast and mold strains; assay type: cell-based
Protocol: The sensitivity of a larger number of clinical strain isolates of pathogenic molds (a total of 16) as well as yeasts and related microorganisms (a total of 21) when exposed to the inventive compounds was determined using the dilution method on Sabouraud agar.

Aspergillus strains = experiment: Antimycotic activity against Aspergillus strains compared with clotrimazole and miconazole; assay type: cell-based
Protocol: as §3

| SMILES | MIC (S pastorianus) | MIC (C albicans) | MIC (A niger) | MIC (T mentagrophytes) | effect of addition of serum or blood to the agar test plate [1] | potency in the presence of biological protein substances [1] | MIC [2] | further results |
| --- | --- | --- | --- | --- | --- | --- | --- | --- |
| Clc1ccc(COC(Cn2ccnc2)c2ccc(Cl)cc2Cl)c(Cl)c1 (centres unmarked) [Miconazole] | 6.2 µg/mL (≈ 14.9 µM) | 0.7 µg/mL (≈ 1.68 µM) | 1.5 µg/mL (≈ 3.6 µM) | 0.03 µg/mL (≈ 0.0721 µM) | – | – | – | – |
| c1ccc2c(c1)CSc1sccc1C2n1ccnc1 (centres unmarked) [Compound Ia, 4-(1-imidazolyl)-4,9-dihydrothieno(2,3-c)-2-benzothiepin] | 25 µg/mL (≈ 87.9 µM) | 25 µg/mL (≈ 87.9 µM) | 0.7 µg/mL (≈ 2.46 µM) | 1.5 µg/mL (≈ 5.27 µM) | doubled the effect | actually improved | 0.7 to 100 µg/mL (≈ 2.46 to 352 µM) | prophylactic (preventative) effect (Candida albicans; intravaginal, concentration of 7.5%): significant prophylactic (preventative) effect; inhibition of the test culture (Candida albicans; intravaginal, concentration of 7.5%, therapy starting 24 hours prior to infection): complete inhibition; inhibition of the test culture (Candida albicans; intravaginal, concentration of 7.5%, therapy starting simultaneously with infection): complete inhibition; results when therapy was delayed (Candida albicans; intravaginal, therapy delayed until 24 hours after infection): somewhat less favorable |
| CC(=O)N1CCN(c2ccc(OCC3COC(Cn4ccnc4)(c4ccc(Cl)cc4Cl)O3)cc2)CC1 (centres unmarked) [Ketoconazole] | 50 µg/mL (≈ 94.1 µM) | 0.03 µg/mL (≈ 0.0565 µM) | 12.5 µg/mL (≈ 23.5 µM) | 0.7 µg/mL (≈ 1.32 µM) | – | – | – | – |
| Clc1ccc2c(c1)C(n1ccnc1)c1ccsc1SC2 (centres unmarked) [Compound Ib, 6-chloro-4-(1-imidazolyl)-4,9-dihydrothieno(2,3-c)-2-benzothiepin] | 12.5 µg/mL (≈ 39.2 µM) | 3.1 µg/mL (≈ 9.72 µM) | 0.03 µg/mL (≈ 0.0941 µM) | 0.03 µg/mL (≈ 0.0941 µM) | had no effect | not diminished | 0.01 to 1.5 µg/mL (≈ 0.0314 to 4.7 µM) | chronic (one month) toxicity [3]: negative; foetal damage [4]: negative; cancerogenity [5]: negative; dermal irritation [6]: negative; teratogenity [7]: negative; LD50 ([8]; LD50, female rats): 1120 mg/kg; LD50 ([8]; LD50, male rats): 1570 mg/kg; toxicity ([8]; rats): only slightly toxic; therapeutic effect on vaginal Candida albicans infections (Candida albicans; topical application): beneficial therapeutic effect; level of activity against typical inducers of dermal mycoses [9]: similarly potent level of activity; vaginal irritation [10]: negative; chronic (one month) toxicity [11]: negative; mutagenity [12]: negative; Minimum MIC values [13]: 0.01 to 25 µg/mL; activity against Aspergillus strains (Aspergillus strains): notably increased activity |
| Clc1ccccc1C(c1ccccc1)(c1ccccc1)n1ccnc1 [Clotrimazole] | 3.1 µg/mL (≈ 8.99 µM) | 0.7 µg/mL (≈ 2.03 µM) | 3.1 µg/mL (≈ 8.99 µM) | 0.03 µg/mL (≈ 0.087 µM) | diminished the effect of clotrimazole about one third | – | 0.01 to 1.5 µg/mL (≈ 0.029 to 4.35 µM) | – |
